Results on two compounds are retold here after US7119229B2 (priority 2001, dated 2006).

Assay type in all cases: cell-based
In experiment [1] the test system is MCF-7 (human breast adenomatous tumor). Description: SRB cytotoxicity assay, MCF7. The conditions noted are these: read-out: ED50 MCF7. On the procedure:
(§1) Human tumor cells, including MCF-7 (human breast adenomatous tumor), MCF-7/DOX (adriamycin resistant cell strain), MRS-SA (human uterine sarcoma), MES-SA/DX5 (adriamycin resistant cell strain), A 549 (human non-small cell lung), SKOV-3 (human ovarian), SKMEL-2 (human melanoma), XF-498 (human CNS), HCT-15 (human colon) were incubated at 37° C. in the presence of 5% CO2 using a DMEM culture medium. The respective cells were seeded into each well of 96-well plates at a concentration of 2×10^3˜5×10^3 cells/well. […] Each cell line of the resultant plates was fixed with trichloroacetic acid (TCA), stained with 0.4% SRB solution and rinsed with 1% acetic acid. Thereafter, the dye was dissolved in 10 mM Tris base to measure the optical density (OD) at 520 nm.
For orientation: Sulforhodamine B stains cellular protein and so reports cell mass.

The test system of experiment [2] is MCF-7/DOX (adriamycin resistant cell strain). Description: SRB cytotoxicity assay, MCF-7/DOX. The conditions noted are these: Homo sapiens, MCF7-DOX, read-out: ED50 MCF-7/DOX. On the procedure: as §1
Experiment [3] has as its system MES-SA (human uterine sarcoma). As to the kind of experiment: SRB cytotoxicity assay, MES-SA. The conditions noted are these: read-out: ED50 MES-SA. The procedure: as §1
Experiment [4] deals with MES-SA/DX5 (adriamycin resistant cell strain). Description: SRB cytotoxicity assay, MES-SA/DX5. The following applies: Homo sapiens, read-out: ED50 MES-SA/DX5. On the procedure: as §1
The subject of experiment [5] is A 549 (human non-small cell lung). As to the kind of experiment: SRB cytotoxicity assay, A549. The following applies: read-out: ED50 A549. The procedure: as §1
A further experiment has as its system SKOV-3 (human ovarian). Description: SRB cytotoxicity assay, SK-OV-3. The following applies: 72 hours, read-out: ED50 SK-OV-3. On the procedure: as §1
For a further experiment, the system named is SKMEL-2 (human melanoma). As to the kind of experiment: SRB cytotoxicity assay, SK-MEL-2. The following applies: read-out: ED50 SK-MEL-2. On the procedure:
as §1

For a further experiment, the system named is XF-498 (human CNS). As to the kind of experiment: SRB cytotoxicity assay, XF498. The conditions noted are these: 72 hours, read-out: ED50 XF498. The procedure: as §1
The test system of the next experiment is HCT-15 (human colon). As to the kind of experiment: SRB cytotoxicity assay, HCT15. The following applies: read-out: ED50 HCT15. On the procedure:
as §1

Experiment [6] concerns BALB/c mouse spleen cell (responding) and DBA/2 mouse spleen cell (stimulating). The procedure: MLR tests were carried out to determine the immunosuppressive effect of an immunosuppressive candidate material. When a responding cell (BALB/c mouse spleen cell) and a stimulating cell (DBA/2 mouse spleen cell) were cultured separately, the cells grew little. On the contrary, when the cells were simultaneously cultured, the cells were proliferated due to induction of an antigen-antibody reaction. The proliferated cells were treated with the immunosuppressive candidate material for measurement of the proliferation inhibitory extent.
After culturing for 72 hours at a CO2 incubator, a 20 μl MTS solution was added to each well, followed by further culturing for 2 to 4 hours and measuring OD at […] by using ELISA.

The test system of experiment [7] is BALB/c mouse spleen cells, B cells activated with lipopolysaccharide (LPS). As to the kind of experiment: Immunosuppressive effect test using BALB/c mouse spleen cells, LPS (B cells). The conditions noted are these: 20 μg/ml lipopolysaccharide, 72 hours, MTS, FIGS. 2 and 3. On the procedure:
(§2) This test was carried out to determine the immunosuppressive effect of an immunosuppressive candidate material by checking anti-proliferation of T cells and B cells. To identify the proliferation inhibitory extent, responding cells (BALB/c mouse spleen cells) were treated with an immunosuppressive candidate material, lipopolysaccharide (LPS) as a B cell activator and concanvalin A (ConA) as a T cell activator. It is known that the responding cells treated with LPS induce proliferation of B cells and those treated with ConA induce proliferation of T cells.
(§3) Responding cells (BALB/c mouse spleen cells) were seeded into each well of 96-well plates at a concentration of 2×10^5 cells/well. […] After culturing for 72 hours at a CO2 incubator, a 20 μl MTS solution was added to each well, followed by further culturing for 2 to 4 hours and measuring OD at 490 nm using ELISA.

For experiment [8], the system named is BALB/c mouse spleen cells, T cells activated with concanvalin A (ConA). As to the kind of experiment: Immunosuppressive effect test using BALB/c mouse spleen cells, ConA (T cells). The conditions noted are these: 2 μg/ml of ConA, 72 hours, MTS, FIGS. 2 and 3. On the procedure: as §2, §3

Read-outs that look alike come from different tables or passages of the source.

On to `CC(=O)O[C@H]1C(=O)[C@@]2(C)[C@H]([C@H](OC(=O)c3ccccc3)[C@]3(O)C[C@H](OC(=O)[C@H](O)[C@@H](NC(=O)c4ccccc4)c4ccccc4)C(C)=C1C3(C)C)[C@]1(OC(C)=O)CO[C@@H]1C[C@@H]2O` [Taxol, reference compound], for which the EC50 in [1] (MCF7, SRB, 72 hours) was 0.04 nM; in experiment [2] (SRB, 72 hours), 943 nM; in experiment [3] (SRB, 72 hours), 0.02 nM; in experiment [4] (MES-SA/Dx5, SRB, 72 hours), 1150 nM; in experiment [5] (A549, SRB, 72 hours), 0.3 nM; with SKOV-3 (human ovarian), 1.2 nM. The EC50 came out at 0.1 nM with SKMEL-2 (human melanoma) (SK-MEL-2, SRB, 72 hours); 1.7 nM with XF-498 (human CNS); 0.1 nM in the experiment with HCT-15 (human colon) (HCT-15, SRB, 72 hours).
On to `COc1cc2c(c(OC)c1OC)-c1ccc(SC)c(=O)cc1[C@@H](NC(=O)c1cccc(CO[N+](=O)[O-])c1)CC2` [Compound 12], for which the EC50 came out at 0.02 nM in experiment [1] (MCF7, 72 h); 28 nM in experiment [2] (72 h); 0.01 nM in experiment [3] (72 h); 115 nM in [4] (MES-SA/Dx5, 72 h); 0.1 nM in [5] (A549, 72 h); 0.3 nM with SKOV-3 (human ovarian). In addition, the EC50 in the experiment with SKMEL-2 (human melanoma) (SK-MEL-2, 72 h) was 0.1 nM; in the experiment with XF-498 (human CNS), 0.2 nM; in the experiment with HCT-15 (human colon) (HCT-15, 72 h) it was 0.1 nM. Also, the immunosuppressive effect entry in experiment [6] is “good immunosuppressive effect”. Further, the “anti-proliferation of B cells” value in [7] is given as “remarkable anti-proliferous effect”. The “anti-proliferation of T cells” value in [8] is given as “remarkable anti-proliferous effect”.
